One may read the IC50 as the concentration at which inhibition is half-maximal.

Consider 72 compounds from patent US10774051B2, “6-membered heterocyclic derivatives and pharmaceutical composition comprising the same” (Shionogi & Co., Ltd., priority 2015, dated 2020).

The first assay deals with human P2X7 receptor (Homo sapiens, UniProt Q99572, R270H/Y155H). Put plainly: Evaluation of human P2X7 receptor inhibitory activity (Yo-Pro uptake, BzATP stimulation, FLIPR TETRA). It counts as cell-based. The following applies: 1321N1 cells stably expressing human P2X7 receptor; BzATP stimulation, Yo-Pro uptake; read-out: IC50 (antagonistic activity for the human P2X7 receptor). In a few lines:
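Yo-Pro dye uptake triggered by BzATP was monitored by FLIPR in human P2X7-transfected 1321N1 cells (SNP variant) in HEPES-buffered HBSS, pH 7.4-7.5. Compound was dispensed 8 min post-stimulation, then signal read for 20 min; IC50 derived logistically from inhibition of the fluorescence range.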
On to `COc1cn(Cc2ccc(F)c(Cl)c2)c(Nc2cc3c(cc2C)OCC=C3)nc1=O` [Compound I-0912], for which the IC50 was found to be 22 nM.

With `COc1cn(Cc2ccc(Cl)cc2)c(Nc2cc(C)c(C)cc2C)nc1=O` [Compound I-0193], the 50% inhibitory concentration (IC50) turned out to be 18 nM.

On to `COc1cn(Cc2ccccc2F)c(Nc2cc(C)c(C)cc2C)nc1=O` [Compound I-0176], for which the IC50 is 13 nM.

As for `COc1ccccc1Nc1nc(=O)c(OC)cn1Cc1ccc(F)c(F)c1` [Compound I-0675], the IC50 is 190 nM.

With `COc1cn(Cc2ccsc2)c(Nc2cc(C)c(C)cc2C)nc1=O` [Compound I-0738], the IC50 turned out to be 3 nM.

Regarding `COc1cn(Cc2ccc(F)c(Cl)c2)c(Oc2cc3sc(C)nc3cc2C)cc1=O` [Compound I-0966], the IC50 was determined as 480 nM.

`COc1cn(Cc2cccc(Cl)c2)c(Nc2cccc3[nH]c(C)cc23)nc1=O` [Compound I-0487]: the IC50 amounted to 25 nM.

In the case of `COc1cn(Cc2ccc(F)cc2)c(Nc2cc3sc(C)nc3cc2C)nc1=O` [Compound I-0561], the IC50 was 19 nM.

`COc1cc(C)c(Nc2ncc(OC)c(=O)n2Cc2ccc(F)c(Cl)c2)cc1C` [Compound I-0985]: the IC50 turned out to be 65 nM.

On to `Cc1nc2cc(C)c(Nc3cc(=O)n(C)c(=O)n3Cc3cc(F)c(F)c(F)c3)cc2s1` [Compound I-0030], for which the IC50 came to 34 nM.

Take `COc1cn(Cc2cc(F)cc(F)c2)c(Nc2cc3c(cc2C)OCC3)nc1=O` [Compound I-0865]: the IC50 was found to be 8 nM.

Staying with this assay, now noted: 1321N1 cells stably expressing human P2X7 receptor; BzATP stimulation, Yo-Pro uptake; read-out: IC50 (antagonistic activity for the human P2X7 receptor), class symbol.
For `COc1cn(Cc2ccccc2)c(Nc2cccc3c2CCNC3)nc1=O` [Compound I-0050], the IC50 is 500 to 1000 nM.

`COc1cn(Cc2ccccc2OC(F)F)c(Nc2cccc(Cl)c2C)nc1=O` [Compound I-0446]: the IC50 was less than 10 nM.

Regarding `COc1cn(Cc2ccccc2)c(Nc2cccc(CO)c2C)nc1=O` [Compound I-0110], the IC50 lay within 100 to 500 nM.

For the compound `COc1cn(Cc2cc(F)cc(F)c2)c(Nc2cc(OC(C)C)ccc2C)nc1=O` [Compound I-0556], the IC50 was in the range of 10 to 100 nM.

`COc1cn(Cc2cccc(F)c2)c(Nc2cc3sc(C)nc3cc2C)nc1=O` [Compound I-0559]: the IC50 lay within 10 to 100 nM.

As for `COc1cn(Cc2cc(F)cc(F)c2)c(Nc2cc(OCC(F)(F)F)ccc2C)nc1=O` [Compound I-0496], the IC50 was 10 to 100 nM.

For the compound `COc1cn(Cc2cccc(Cl)c2)c(Nc2cc3sc(C)nc3cc2C)nc1=O` [Compound I-0562], the IC50 lay within 10 to 100 nM.

As to `CCc1ccccc1Nc1nc(=O)c(Cl)cn1Cc1ccccc1` [Compound I-0105], the IC50 was in the range of 100 to 500 nM.

As to `CCc1cc(OC)c(OC)cc1Nc1nc(=O)c(F)cn1Cc1ccc(F)cc1` [Compound I-0267], the IC50 is less than 10 nM.

On to `COC(=O)c1ccc(C)c(Nc2nc(=O)c(OC)cn2Cc2ccccc2)c1` [Compound I-0150], for which the IC50 was 100 to 500 nM.

Regarding `CCc1c(Cl)cccc1Nc1nc(=O)c(OC)cn1Cc1ccccc1` [Compound I-0215], the 50% inhibitory concentration (IC50) is less than 10 nM.

Consider `COc1cn(Cc2ccccc2)c(Nc2cc(Cl)cc(Cl)c2Cl)nc1=O` [Compound I-0145], for which the IC50 is 10 to 100 nM.

`CCc1ccc(F)cc1Nc1nc(=O)c(OC)cn1Cc1ccc(F)cc1` [Compound I-0565]: the IC50 was in the range of 100 to 500 nM.

On to `COc1cn(Cc2cc(F)cc(F)c2)c(Nc2cc(C)c(C)cc2C)nc1=O` [Compound I-0377], for which the IC50 was less than 10 nM.

For `COc1cn(Cc2ccccc2Cl)c(Nc2cccc(Cl)c2C)nc1=O` [Compound I-0125], the IC50 lay in the range of 10 to 100 nM.

For `Cc1cccc(C)c1Nc1nc(=O)c(F)cn1Cc1ccccc1` [Compound I-0153], the IC50 lay in the range of 10 to 100 nM.

Regarding `COc1cn(Cc2cc(F)cc(Cl)c2)c(Nc2cc(C)ccc2C)nc1=O` [Compound I-0445], the IC50 lay in the range of 10 to 100 nM.

As to `COCc1ccccc1Nc1nc(=O)c(OC)cn1Cc1ccc(F)c(Cl)c1` [Compound I-0356], the IC50 is 100 to 500 nM.

Consider `CCc1ccc(F)cc1Nc1nc(=O)c(OC)cn1Cc1cccc(Cl)c1` [Compound I-0566], for which the IC50 fell in the range of 10 to 100 nM.

On to `COc1cn(Cc2cc(F)cc(F)c2)c(Nc2cc(C)ccc2C)nc1=O` [Compound I-0436], for which the IC50 is less than 10 nM.

Consider `COc1cn(CCCc2ccccc2)c(Nc2cccc(Cl)c2C)nc1=O` [Compound I-0099], for which the IC50 fell in the range of 100 to 500 nM.

With `CCc1ccccc1Nc1nc(=O)c(OC)cn1Cc1cc(F)cc(F)c1` [Compound I-0327], the half-maximal inhibitory concentration (IC50) lay in the range of 10 to 100 nM.

`COc1cn(Cc2ccc(Cl)c(F)c2)c(Nc2cccc(Cl)c2C)nc1=O` [Compound I-0280]: the IC50 was 10 to 100 nM.

Turning to `Cc1c(Cl)cccc1Nc1nc(=O)c(CC(N)=O)cn1Cc1ccccc1` [Compound I-0026], the IC50 was 10 to 100 nM.

Take `COc1cn(Cc2ccc(F)c(Cl)c2)c(Nc2cc(-c3nnco3)ccc2C)nc1=O` [Compound I-0379]: the IC50 is less than 10 nM.

Regarding `COc1cn(Cc2ccccc2COC(F)F)c(Nc2cccc(Cl)c2C)nc1=O` [Compound I-0463], the IC50 is less than 10 nM.

On to `CCc1ccc(OC)cc1Nc1nc(=O)c(OC)cn1Cc1cccc(F)c1` [Compound I-0251], for which the half-inhibitory concentration (IC50) lay within 10 to 100 nM.

The assay is the same for the next values; noted with them: antagonistic activity for the human P2X7 receptor; read-out: IC50.
In the case of `COc1cn(Cc2ccc(F)c(Cl)c2)c(Nc2c(C)ccc(C)c2F)nc1=O` [Compound I-0927], the IC50 was less than 10 nM.

As to `COc1cc(Nc2nc(=O)c(OC)cn2Cc2cc(F)c(F)c(F)c2)c(C)cc1C` [Compound I-0715], the IC50 was less than 10 nM.

In the case of `COc1cn(Cc2cc(F)cc(F)c2)c(Nc2ccc(OC(F)(F)F)cc2C)nc1=O` [Compound I-0629], the IC50 fell in the range of 10 to 100 nM.

With `COc1cn(Cc2ccc(F)c(F)c2)c(Nc2cc3sc(C)nc3cc2C)nc1=O` [Compound I-0665], the IC50 is less than 10 nM.

Take `COc1cc(Nc2nc(=O)c(F)cn2Cc2cc(F)c(F)c(F)c2)c(C)nc1F` [Compound I-1117]: the IC50 was 10 to 100 nM.

Take `COCc1cn(Cc2cc(F)c(F)c(F)c2)c(Nc2cc3c(cc2C)COC3)nc1=O` [Compound I-1126]: the IC50 is 10 to 100 nM.

With `CCOc1ccc(Nc2nc(=O)c(OC)cn2Cc2cc(F)cc(Cl)c2)c(C)c1` [Compound I-0681], the IC50 fell in the range of 10 to 100 nM.

As for `C=C(C)c1ccc(C)c(Nc2nc(=O)c(OC)cn2Cc2cc(F)cc(Cl)c2)c1` [Compound I-0748], the IC50 was 10 to 100 nM.

As to `CCOc1cc(Nc2nc(=O)c(OC)cn2Cc2cccc(Cl)c2)c(C)cc1C` [Compound I-0791], the IC50 was less than 10 nM.

Consider `COc1cc(Nc2nc(=O)c(F)cn2Cc2cc(F)cc(F)c2)c(C)cc1Cl` [Compound I-1005], for which the IC50 was less than 10 nM.

On to `COc1ccc(C)c(Nc2nc(=O)c(F)cn2Cc2ccc(F)c(F)c2)c1` [Compound I-1068], for which the IC50 was less than 10 nM.

On to `Cc1ccc(-c2nnco2)cc1Nc1nc(=O)c(Cl)cn1Cc1cc(F)c(F)c(F)c1` [Compound I-1157], for which the IC50 is less than 10 nM.

For the compound `Cc1cc(N2CCOCC2)ccc1Nc1nc(=O)c(C)cn1Cc1cc(F)c(F)c(F)c1` [Compound I-1132], the IC50 fell in the range of 10 to 100 nM.

With `Cc1cc(C)c(OC(F)F)cc1Nc1nc(=O)c(F)cn1Cc1cc(F)c(F)c(F)c1` [Compound I-1230], the IC50 is less than 10 nM.

`Cc1ccc(-c2ncco2)cc1Nc1nc(=O)c(Cl)cn1Cc1ccc(F)c(F)c1` [Compound I-0853]: the IC50 is less than 10 nM.

With `COc1cn(Cc2ccccc2)c(Nc2ccc(Cl)cc2C)cc1=O` [Compound I-0950], the IC50 lay in the range of 100 to 500 nM.

Regarding `COc1cn(Cc2cc(F)c(F)c(F)c2)c(Nc2cc3c(cc2C)OCCC3)nc1=O` [Compound I-0917], the IC50 lay in the range of 10 to 100 nM.

On to `COc1cn(Cc2ccc(F)c(Cl)c2)c(Nc2cc(-c3ccnn3C)ccc2C)nc1=O` [Compound I-0733], for which the IC50 fell in the range of 10 to 100 nM.

As to `COc1ccc(Nc2nc(=O)c(CO)nn2Cc2cc(F)c(F)c(F)c2)c(C)c1` [Compound I-1247], the half-inhibitory concentration (IC50) is less than 10 nM.

Take `COc1cnc(Nc2cccc(Cl)c2C)n(Cc2ccc(F)c(Cl)c2)c1=O` [Compound I-0971]: the IC50 was in the range of 100 to 500 nM.

As for `COc1cc(Nc2nc(=O)c(F)cn2Cc2cc(F)c(F)c(F)c2)c(C)cc1Cl` [Compound I-1006], the IC50 was less than 10 nM.

Take `O=c1nc(Nc2cccc3c(O)cccc23)n(Cc2ccc(F)c(F)c2)cc1F` [Compound I-1115]: the IC50 is less than 10 nM.

Consider `COc1cc(F)c(Nc2nc(=O)c(C)nn2Cc2cc(F)c(F)c(F)c2)cc1OC` [Compound I-1257], for which the IC50 was in the range of 10 to 100 nM.

Turning to `Cc1c(Cl)cccc1Nc1nc(=O)c(F)cn1Cc1cc(F)c(F)c(F)c1` [Compound I-1219], the IC50 was less than 10 nM.

Consider `COc1cn(Cc2ccccc2)c(Nc2cc(OC(F)(F)F)ccc2C)nc1=O` [Compound I-0691], for which the IC50 is 100 to 500 nM.

As to `COc1cn(Cc2ccc(F)c(F)c2)c(Nc2cccc(SC)c2C)nc1=O` [Compound I-0606], the half-maximal inhibitory concentration (IC50) was less than 10 nM.

For `COCc1ccc(C)c(Nc2nc(=O)c(F)cn2Cc2cc(F)cc(F)c2)c1` [Compound I-0996], the IC50 lay in the range of 10 to 100 nM.

`COc1cn(Cc2cc(F)cc(Cl)c2)c(Nc2cc3ncccc3cc2C)nc1=O` [Compound I-0773]: the IC50 was 100 to 500 nM.

As for `O=c1nc(Nc2cccc3c2CCN3)n(Cc2cc(F)c(F)c(F)c2)cc1F` [Compound I-0995], the IC50 fell in the range of 10 to 100 nM.

In the case of `Cc1ccc(N2CC3CCC2C3)cc1Nc1nc(=O)c(F)cn1Cc1cc(F)c(F)c(F)c1` (stereo not drawn) [Compound I-1053], the IC50 lay within 10 to 100 nM.

For `CCc1cc2c(cc1Nc1nc(=O)c(OC)cn1Cc1cc(F)cc(F)c1)OC(F)(F)O2` [Compound I-0729], the IC50 lay within 100 to 500 nM.

Regarding `COc1ccc(Nc2nc(=O)cnn2Cc2ccccc2)c(C)c1` [Compound I-1276], the IC50 fell in the range of 10 to 100 nM.

For the compound `COc1cc(C)c(Nc2nc(=O)c(C)cn2Cc2cc(F)c(F)c(F)c2)cc1OC` [Compound I-1153], the IC50 was less than 10 nM.

On to `Cc1nc2[nH]ccc2cc1Nc1nc(=O)c(F)cn1Cc1ccc(F)c(Cl)c1` [Compound I-1091], for which the IC50 fell in the range of 10 to 100 nM.
